Measured values: patent publication US11285128B2, “Homogenous antibody drug conjugates via enzymatic methods” (CSPC Megalith Biopharmaceutical Co., Ltd., priority 2014, dated 2022)

B1: TG_SM: mTgase from S. mobaraensis, purified from Ajinomoto's Activa TI (SEQ ID NO:18) (protein)
chain: DSDDRVTPPAEPLDRMPDPYRPSYGRAETVVNNYIRKWQQVYSHRDGRKQQMTEEQREWLSYGCVGVTWVNSGQYPTNRLAFASFDEDRFKNELKNGRPRSGETRAEFEGRVAKESFDEEKGFQRAREVASVMNRALENAHDESAYLDNLKKELANGNDALRNEDARSPFYSALRNTPSFKERNGGNHDPSRMKAVIYSKHFWSGQDRSSSADKRKYGDPDAFRPAPGTGLVDMSRDRNIPRSPTSPGEGFVNFDYGWFGAQTEADADKTVWTHGNHYHAPNGSLGAMHVYESKFRNWSEGYSDFDRGAYVITFIPKSWNTAPDKVKQGWP

Key:
[1] = test system: SK-BR-3 cells; experiment: In vitro cell viability assay (CellTiter Blue) in SK-BR-3 cells; format: cell-based; conditions: Trastuzumab-MMAE conjugates
Procedure: SK-BR-3 cells were seeded in 96 well black clear-bottom plates at 10K cells/well and cultured for 24 hours. Cells were treated for 96 hours with 2 fold serially diluted antibody-drug conjugates in triplicates. Cells viability was determined by […]™ Blue Cell Viability Assay (Promega, Madison, Wis.). Relative cell viability was determined as a percentage of untreated control. IC50 was calculated using a four parameter logistic model from XLfit.

[2] = test system: BT474 cells; experiment: BT474 cell-based assay; conditions: Trastuzumab-MMAE conjugates, Table 4
[3] = In vivo stability in blood of NCI N87 xenograft mice (sandwich ELISA, ratio ADC/mAb); conditions: blood samples up to 21 days
Procedure: After ADC administration, blood samples of 20 μl were taken every 1-2 days up to 21 days by poking mouse tails and mixed with 120 μl of storage buffer (PBS with 10 mM EDTA and 0.1 M NH4Cl). Then total trastuzumab and ADC were analyzed by sandwich ELISA. Black NUNC® Maxisorp 96 plates were coated with Her2 protein at 100 ng/well. Samples were further diluted with PBS as needed to suit the linear detection range of 10 pg to 2 ng (for either Trastuzumab or ADC). After applying samples (fresh ADC dilutions were used as both total mAb and ADC standards) and washing, rabbit polyclonal anti-trastuzumab (for total mAb) or anti-MMAE (for total ADC) were applied as secondary antibodies while Goat anti-Rabbit IgG-HRP (Life-technologies) was used as the detection antibody. AMPLEX® Red (Cayman Chemical)/4-Iodophenol (Sigma)/H2O2 mixture was used as fluorescence substrate. Plates were read on SpectraMax GEMINI′ with 555 nm Ex and 585 nm Em.

[4] = biological target: IgG1 (Homo sapiens, UniProt P01857, D239E/L241M); experiment: mTgase-catalysed conjugation of IgG1 with MDC (HPLC); format: biochemical; conditions: high enzyme concentration
IgG1, sequence (P01857 with tags, fused parts or gaps isoform P01857-1 D239E/L241M, other chains not shown): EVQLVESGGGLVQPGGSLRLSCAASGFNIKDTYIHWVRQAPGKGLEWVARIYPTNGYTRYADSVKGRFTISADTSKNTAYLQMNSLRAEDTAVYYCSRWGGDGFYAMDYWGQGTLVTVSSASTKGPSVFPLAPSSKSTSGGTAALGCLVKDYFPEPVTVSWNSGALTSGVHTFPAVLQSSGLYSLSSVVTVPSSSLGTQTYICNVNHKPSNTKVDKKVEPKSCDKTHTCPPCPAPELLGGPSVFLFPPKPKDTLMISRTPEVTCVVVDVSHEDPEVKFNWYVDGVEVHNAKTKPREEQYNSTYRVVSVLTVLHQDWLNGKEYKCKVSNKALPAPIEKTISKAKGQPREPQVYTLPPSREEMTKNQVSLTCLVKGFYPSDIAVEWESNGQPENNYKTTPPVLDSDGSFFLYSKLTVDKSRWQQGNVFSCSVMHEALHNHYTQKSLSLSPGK
Procedure: MDC was chosen for this experiment because it has a primary amine and its fluorescence can be easily monitored. […] To purified IgG1 (1-10 mg/ml) in Tris-buffer (pH 6.5-8.5), add MDC (Sigma-Aldrich) in DMSO to final concentrations of 1-5 mM (final DMSO 2-10%). Add purified wildtype TG_SL or its mutant to a final concentration of 0.05-1.0 mg/ml. Incubate the reaction mixtures at 37° C. Reaction was followed by HPLC using phenyl hydrophobic interaction column (PHIC, Tosoh Bioscience LLC). At the beginning of the reaction, the product was dominated by DAR1, where only one heavy chain of IgG1 was coupled with MDC. As the reaction progressed, DAR 2, where both heavy chains of IgG1 are coupled with MDC, became the major product. Toward the end of reaction (8 hours at 0.2 mg/ml of mTgase at pH 7), conjugation yield reached 80% for DAR2 with 20% of DAR 1 left, or 90% for heavy chain (HC) when the sample was reduced by 10 mM TCEP and analyzed on C4-1000A column (Vydac) (see FIG. 6). The selective conjugation of MDC to HC was visualized on SDS PAGE (FIG. 7). Other mTgases, such as TG_SM from S. mobaraensis (purified from Ajinomoto's Activa TI), was also tested.

Molecule | IC50 [1] | IC50 [2] | stability in blood (ratio of ADC/mAb vs time) [3] | activity comparing to TG_SL [4]
PEG4 | 0.061 nM | 0.273 nM | – | –
PEG6 | 0.05 nM | 0.234 nM | – | –
PEG8 | 0.042 nM | 0.23 nM | – | –
PEG12 | 0.038 nM | 0.267 nM | completely stable in blood | –
B1 | – | – | – | about 30%
